Data taken from patent EP0005541A2, “Substituted piperidine, morpholine or piperidone derivatives, fungicides containing these compounds, process for their preparation and their use, and the use of these compounds as fungicides” (F. HOFFMANN-LA ROCHE & CO. Aktiengesellschaft, priority 1978, dated 1979).
In brackets after ≈: the same amount, converted by molar mass.

Columns and labels:
Erysiphe graminis = Erysiphe graminis protective spray test on barley seedlings (greenhouse); assay type: in vivo; conditions: barley seedlings HERTA, infected 2 days after spraying, read 7 days after infection vs infected untreated control
Protocol: 30-40 Gerstenkeimlinge der Sorte HERTA (verteilt auf 2 Töpfe mit 7 cm Durchmesser) wurden jeweils im Einblattstadium mit einer wässerigen Dispersion der Testsubstanz (wie allgemein üblich aufbereitet als Spritzpulver) allseitig gründlich besprüht und anschliessend bei 22-26°C, 80% rel. Luftfeuchtigkeit und einer Photoperiode von 16 Stunden im Gewächshaus weiterkultiviert. Die Infektion erfolgte 2 Tage nach der Behandlung durch Bestäuben der Versuchspflanzen mit Kon dien von Erysiphe graminis. 7 Tage nach der Infektion wurde ::ie durch Erysiphe graminis befallene Blattfläche in % gegenüber derjenigen der infizierten, nicht behandelten Kontrolle ermittelt. Die Resultate sind in Tabelle I zusammengefasst.

Puccinia coronata = Puccinia coronata protective spray test on oat seedlings; assay type: in vivo; conditions: oat seedlings FLAEMINGSKRONE, infected 2 days after spraying, read on day 9 after infection vs infected untreated control
Protocol: 30-40 Haferkeimlinge der Sorte FLAEMINGSKRONE (verteilt auf 2 Töpfe mit 7 cm Durchmesser) wurden jeweils im Einblattstadium mit einer wässerigen Dispersion der Testsubstanz (wie allgemein üblich aufbereitet als Spritzpulver) allseitig gründlich besprüht und anschliessend in einer Klimakabine bei 17°C. 70-80% rel. Luftfeuchtigkeit und einer Photoperiode von 16 Stunden weiterkultiviert. Nach 2 Tagen erfolgte die Infektion der Versuchspflanzen durch Besprühen mit in dest. Wasser suspendierten Uredosporen (300'000 Sporen/ml) vor. Puccinia coronata. Danach wurden die Pflanzen während 24 Stunden bei 20°C und einer Luftfeuchtigkeit von über 90W im Dunkeln inkubiert und anschliessend in ein Gewächshaus mit einer Temperatur von 22-26 °C, einer rel. Luftfeuchtigkeit von 70% und einer Photoperiode von 18 Stunden übe führt. Am 9. Tage nach der Infektion wurde die durch Pucrinia coronata befallene Blattfläche in % gegenüber der infizierten, nicht behandelten Kontrolle ermittelt. Die ResLltate sind in Tabelle I zusammengefasst.

[1] = test system: Trichophyten mentagrophytes Stamm 109; experiment: Trichophyton mentagrophytes in vitro agar dilution test; assay type: cell-based; conditions: STAMM109, 168 h, minimal concentration fully preventing growth, tested at 100, 10, 1, 0,1, 0,01 mcg/ml, 7 days at 37°C, values mostly maximum values, true MHC may be lower, read-out: MHC (µg/ml) Trichophyton mentagr.
Protocol: Methode: Eine standardisierte Suspension der Hefeform von Konidien (Sporen) von Trichophyten mentagrophytes Stamm 109 (ca. das Fünfzigfache der zum Angehen der Kultur notwendigen geringsten Keimzahl) wird gleichzeitig mit geeigneten Präparatlösungen in verflüssigten und auf 50°C abgekühlten Agarnährboden nach Rowley und Huber eingegossen. Lösung der Präparate in Wasser oder Polyäthylenglykol (Carbowax 400). Präparate, die weder in Wasser noch in Polyäthylenglykol löslich sind, werden fein suspendiert. End- . konzentrationen der Präparate im Nährboden 100, 10, 1, 0,1 und 0,01 mcg/ml. Endkonzentration von Polyäthylenglykol 5%. 7 Tage Bebrütung bei 37°C.
(§1) Auswertung: Ablesung des Pilzwachstums mit blossem Auge.
(§2) Resultate: Angabe der minimalen Präparatkonzentration in mcg/ml, die das Wachstum des Pilzes vollständig verhindert (MHC). Die Resultate sind für einige Beispiele in der nachstehenden Tabelle II zusammengefasst.

[2] = test system: Candida albicans Stamm H 29; experiment: Candida albicans in vitro agar dilution test; assay type: cell-based; conditions: STAMMH29, 168 h, minimal concentration fully preventing growth, tested at 100, 10, 1 mcg/ml, 7 days at 37°C, values mostly maximum values, true MHC may be lower
Protocol: Methode: Eine standardisierte Suspension der Hefeform von Candida albicans Stamm H 29 (ca. 300 Zellen/5 ml, das fünfzigfache der zum Angehen der Kultur notwendigen geringsten Keimzahl) wird gleichzeitig mit geeigneten Präparatlösungen in verflüssigten und auf 50°C abgekühlten Agarnährboden nach Rowley und Huber eingegossen. Lösung der Präparate in Wasser oder Polyäthylenglykol (Carbowax 400). Präparate, die weder in Wasser noch in Polyäthylenglykol löslich sind, werden fein suspendiert. Endkonzentrationen der Präparate im Nährboden 100, 10 und 1 mcg/ml. Endkonzentration von Polyäthylenglykol 5%. 7 Tage Bebrütung bei 37°C.
as §1, §2

[3] = test system: Histoplasma capsulatum Stamm Hist 2; experiment: microbe, parasite or virus in culture; assay type: cell-based; conditions: 288 h, read-out: MHC (µg/ml) Histoplasma capsulatum
Venturia inaequalis = Venturia inaequalis protective spray test on apple seedlings; assay type: in vivo; conditions: infected 2 days after spraying, read on day 13 after infection vs infected untreated control
Protocol: 3 Apfelpflänzchen (verteilt auf 3 Töpfe mit 5 cm Durchmesser) aus Samen der Sorte GOLDIN DELICIOUS wurden im 4- bis 5-Blattstadium mit einer wässerigen Dispersion der Testsubstanz (wie allgemein üblich aufbereitet als Spritzpulver) allseitig gründlich besprüht. Die behandelten Pflanzen wurden anschliessend während 2 Tagen bei 17°C, 70-80%rel. Luftfeuchtigkeit und einer Photoperiode von 14 Stunden weiterkultiviert. Danach erfolgte die Infektion der Apfelsämlinge durch Besprühen mit in dest. Wasser suspendierten Konidien (200'000 Konidien/ml) von Venturia inaequalis. Nach der Infektion wurden die Pflanzen im Dunkeln während 48 Stunden bei 16-18°C und einer rel. Luftfeuchtigkeit von über 90% inkubiert und anschliessend in ein schattiertes Gewächshaus mit einer Temperatur von 22-26 °C und einer rel. Luftfeuchtigkeit von über 80% überführt. Am 13. Tage nach der Infektion erfolgte die Ermittlung der durch Venturia inaequalis befallenen Blattfläche gegenüber der infizierten, nicht behandelten Kontrolle. Die Resultate sind in Tabelle II zusammengefasst.

Row | SMILES | Wirkung (in %) Erysiphe graminis (Erysiphe graminis; 5 mg/l Spritzbrühe) | Wirkung (in %) Erysiphe graminis (Erysiphe graminis; 16 mg/l Spritzbrühe) | Wirkung (in %) Erysiphe graminis (Erysiphe graminis; 50 mg/l Spritzbrühe) | Wirkung (in %) Erysiphe graminis (Erysiphe graminis; 160 mg/l Spritzbrühe) | Wirkung (in %) Puccinia coronata (Puccinia coronata; 5 mg/l Spritzbrühe) | Wirkung (in %) Puccinia coronata (Puccinia coronata; 16 mg/l Spritzbrühe) | Wirkung (in %) Puccinia coronata (Puccinia coronata; 50 mg/l Spritzbrühe) | Wirkung (in %) Puccinia coronata (Puccinia coronata; 160 mg/l Spritzbrühe) | Wirkung (in %) Puccinia coronata (Puccinia coronata; 500 mg/l Spritzbrühe) | MIC [1] | MIC [2] | MIC [3] | Wirkung (in %) Venturia inaequalis (Venturia inaequalis; 5 mg/l Spritzbrühe) | Wirkung (in %) Venturia inaequalis (Venturia inaequalis; 16 mg/l Spritzbrühe) | Wirkung (in %) Venturia inaequalis (Venturia inaequalis; 50 mg/l Spritzbrühe) | Wirkung (in %) Venturia inaequalis (Venturia inaequalis; 160 mg/l Spritzbrühe) | Wirkung (in %) Erysiphe graminis (Erysiphe graminis; 500 mg/l Spritzbrühe) | Wirkung (in %) Venturia inaequalis (Venturia inaequalis; 500 mg/l Spritzbrühe)
1 | CCC(C)(C)c1ccc(C(C)=C(C)CN2CCC(=O)CC2)cc1 [1-[3-(p-tert.-Amyl-phenyl)-2,3-dimethyl-2-propenyl]-4-piperidon] | 60% | 85% | 90% | 98% | 90% | 95% | 100% | 100% | 100% | 10 µg/mL (≈ 31.9 µM) | 10 µg/mL (≈ 31.9 µM) | 10 µg/mL (≈ 31.9 µM) | 0% | 37% | 83% | 98% | – | –
2 | CCC(C)(C)c1ccc(CC(C)CN2CCC(=O)CC2)cc1 (stereo not drawn) [1-[3-(p-tert.-Amyl-phenyl)-2-methyl-propyl]-4-piperidon] | 20% | 80% | 95% | 100% | 0% | 10% | 90% | 98% | 100% | 10 µg/mL (≈ 33.2 µM) | 10 µg/mL (≈ 33.2 µM) | 10 µg/mL (≈ 33.2 µM) | – | – | – | – | 100% | 20%
